Experimental data from patent publication US20190038571A1, “Orally Available Small Molecules to Inhibit the Function of the Complement System” (priority 2017, published 2019).

What was measured:
C5a receptor = molecular target: T1, C5a receptor (Mus musculus, UniProt P30993); conditions: cited from earlier work
T1 sequence (P30993 1-351): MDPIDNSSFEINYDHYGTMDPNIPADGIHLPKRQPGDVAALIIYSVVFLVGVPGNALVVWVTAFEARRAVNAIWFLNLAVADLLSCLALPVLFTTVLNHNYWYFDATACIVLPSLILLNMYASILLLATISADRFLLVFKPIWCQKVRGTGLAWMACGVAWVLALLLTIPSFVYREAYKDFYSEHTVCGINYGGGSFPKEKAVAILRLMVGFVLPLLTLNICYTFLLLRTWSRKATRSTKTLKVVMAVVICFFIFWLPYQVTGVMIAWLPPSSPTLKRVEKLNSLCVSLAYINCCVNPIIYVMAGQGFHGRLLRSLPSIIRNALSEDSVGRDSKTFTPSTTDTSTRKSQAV

[1] = tested on: classical complement pathway; experiment: sheep erythrocyte lysis assay (complement-mediated lysis of sensitized sheep erythrocytes in normal human serum); format: cell-based; conditions: for Inhibition of complement-mediated sheep erythrocyte lysis: 240 nM to 50 uM added to normal human serum, 37° C., 30 min, hemoglobin absorption at 412 nm
Procedure: FIG. 1. […] Various concentrations of pterostilbene, ranging from 240 nM to 50 uM were added to normal human serum, which was then incubated at 37° C. with sensitized sheep erythrocytes.
The lysis of the sheep erythrocytes is mediated by the classical complement pathway.
Various concentrations of pterostilbene, ranging from 240 nM to 50 uM were added to normal human serum, which was then incubated at 37° C. with sensitized sheep erythrocytes. After a 30 min incubation, the remaining unlysed erythrocytes were pelleted by centrifugation and the amount of hemoglobin released by cell lysis was quantified by absorption spectroscopy at wavelength of 412 nm. Inhibition of lysis indicates reduced complement activity. This is representative data from 3 separate experiments.

[2] = in vivo; cited from earlier work
CA1 neurons = conditions: in vivo; cited from earlier work

| Compound | beta amyloid induced loss of MAP-2 (C5a receptor) | Inhibition of complement-mediated sheep erythrocyte lysis [1] | concentration active to inhibit complement system ([1]; in human serum) | potency in the sheep erythrocyte lysis assay relative to the other stilbene ([1]; pterostilbene versus resveratrol) | bioavailability [2] | protection of CA1 neurons from ischemia reperfusion damage (CA1 neurons) |
| --- | --- | --- | --- | --- | --- | --- |
| PMX53 | blocked | – | – | – | – | – |
| COc1cc(/C=C/c2ccc(O)cc2)cc(OC)c1 [CCB-695, pterostilbene] | – | inhibition of complement-mediated sheep erythrocyte lysis | lower than 1 μM | greater potency than resveratrol | superior pharmacokinetics and bioavailability | – |
| Oc1ccc(C=Cc2cc(O)cc(O)c2)cc1 [Resveratrol] | – | active | – | – | poor bioavailability | protects CA1 neurons from ischemia reperfusion damage |
